Where two headings read alike, the source gives them in different places.
Key:
[1] = biological target: GDP-bound KRAS protein (aa 1-169), containing both G12C and C118A amino acid substitutions (Homo sapiens (Human), UniProt P01116, C118A/G12C); test: Coupled Nucleotide Exchange Assay; assay type: biochemical
Protocol: For compounds in Table 9, the following assay conditions were employed:
Coupled Nucleotide Exchange Assay:
The assay plates were then read on a PerkinElmer EnVision Multilabel Reader, using AlphaScreen® technology, and data were analyzed using a 4-parameter logistic model to calculate IC50 values.

[2] = system: Phosphorylation of ERK1/2 in MIA PaCa-2 cells; test: Phospho-ERK1/2 MSD Assay; assay type: cell-based; details: MiaPaCa-2 cells
[3] = system: Phosphorylation of ERK1/2 in A549 cells; test: Phospho-ERK1/2 MSD Assay (A549); assay type: cell-based
[4] = read-out: Coupled Exchange IC50 (2 h), 2 h compound pre-incubation
[5] = Homo sapiens, MIA PaCa-2, 4 h, read-out: pERK IC50 (4 h, MiaPaCa-2), 4 h compound treatment
[6] = Homo sapiens, A549, 4 h, read-out: pERK IC50 (4 h, A549), 4 h compound treatment
[7] = read-out: Coupled Exchange IC50 (5 min), 5 min compound pre-incubation
[8] = read-out: Coupled Exchange IC50 (20 h), 20 h compound pre-incubation
[9] = Homo sapiens, MIA PaCa-2, read-out: pERK IC50 (4 h), 4 h compound treatment
[10] = Homo sapiens, read-out: pERK IC50 (4 h), 4 h compound treatment

GDP-bound KRAS protein (aa 1-169), containing both G12C and C118A amino acid substitutions, sequence (P01116 other isoform, or with tags, fused parts or gaps G12C/C118A): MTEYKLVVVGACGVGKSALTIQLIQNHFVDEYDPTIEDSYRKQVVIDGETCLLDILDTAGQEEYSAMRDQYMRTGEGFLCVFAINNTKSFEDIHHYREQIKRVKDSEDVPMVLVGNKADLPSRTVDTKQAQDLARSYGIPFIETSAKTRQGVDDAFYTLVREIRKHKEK

| SMILES | IC50 [1, 4] [nM] | IC50 [2, 5] [nM] | IC50 [3, 6] [nM] | IC50 [1, 7] [nM] | IC50 [1, 8] [nM] | IC50 [2, 9] [nM] | IC50 [3, 10] [nM] | IC50 ([2]; read-out: pERK IC50 (4 h, MiaPaCa-2), 4 h compound treatment) [nM] | IC50 ([3]; read-out: pERK IC50 (4 h, A549), 4 h compound treatment) [nM] |
| --- | --- | --- | --- | --- | --- | --- | --- | --- | --- |
| C=CC(=O)N1CC(NC(=O)Cn2c(CC)c(C(=O)N3CCN(c4ccc(C#N)cn4)C[C@H]3C)c3cc(Cl)cc(C)c32)C1 [Example 1-3, 2-(5-Chloro-3-(((2R)-4-(5-cyano-2-pyridinyl)-2-methyl-1-piperazinyl)carbonyl)-2-ethyl-7-methyl-1H-indol-1-yl)-N-(1-(2-propenoyl)-3-azetidinyl)acetamide] | 150 | 1310 | > 100000 | – | – | – | – | – | – |
| C=CC(=O)N1CC(N(C)C(=O)Cn2c(C)c(C(=O)N3CCc4c(cccc4OC)C3)c3cc(Br)cc(C)c32)C1 [Example 4-5, 2-(5-Bromo-3-((5-methoxy-3,4-dihydro-2(1H)-isoquinolinyl)carbonyl)-2,7-dimethyl-1H-indol-1-yl)-N-methyl-N-(1-(2-propenoyl)-3-azetidinyl)acetamide] | 90 | 270 | > 100000 | – | – | – | – | – | – |
| C=CC(=O)N1CC(NC(=O)Cn2c(C)c(-c3ccccc3CC)c3cc(Cl)ccc32)C1 [Example 54] | 650 | – | – | 4370 | 200 | 5880 | > 33300 | – | – |
| C=CC(=O)N1CC(NC(=O)Cn2cc(C(=O)NCCc3ccc(Cl)cc3Cl)c3cc(Br)cc(C)c32)C1 [Example 162] | 760 | 81500 | > 100000 | – | 260 | – | – | – | – |
| C=CC(=O)N1CC(NC(=O)Cn2c(C3CC3)c(C(=O)N3CCN(c4ccc(C#N)cn4)CC3)c3cc(Cl)cc(C)c32)C1 [Example 14] | 580 | 1700 | > 100000 | – | – | – | – | – | – |
| C=CC(=O)N1CC(NC(=O)C(C)(C)n2c(C)c(C(=O)N3CCc4c(cccc4OC)C3)c3cc(Cl)ccc32)C1 [Example 131] | 5540 | – | – | – | 1040 | 37000 | 50600 | – | – |
| C=CC(=O)N1CC(NC(=O)Cn2c(C)c(C(=O)N3CCc4c(C)cc(Br)cc4C3)c3cc(Br)ccc32)C1 [Example 51] | 750 | 4820 | > 100000 | – | 180 | – | – | – | – |
| C=CC(=O)N1CC(NC(=O)Cn2c(C)c(-c3ccccc3C(C)C)c3cc(Cl)ccc32)C1 [Example 5-3, 2-(5-Chloro-2-methyl-3-(2-(2-propanyl)phenyl)-1H-indol-1-yl)-N-(1-(2-propenoyl)-3-azetidinyl)acetamide] | 630 | – | – | 4110 | 220 | 2060 | > 33300 | – | – |
| C=CC(=O)N1CC(N(C)C(=O)Cn2c(C)c(C(=O)N3CCc4c(cccc4OC)C3)c3cc(Cl)ccc32)C1 [Example 33] | 210 | 2800 | > 100000 | – | 130 | – | – | – | – |
| C=CC(=O)N1CC(NC(=O)Cn2c(C3CC3)c(C(=O)N3CCc4c(cccc4OC)C3)c3cc(Br)ccc32)C1 [Example 3-2, 2-(5-Bromo-2-cyclopropyl-3-((5-methoxy-3,4-dihydro-2(1H)-isoquinolinyl)carbonyl)-1H-indol-1-yl)-N-(1-(2-propenoyl)-3-azetidinyl)acetamide] | 140 | 600 | 52600 | – | – | – | – | – | – |
| COc1cccc2c1CCN(C(=O)c1cn(CC(=O)NC3CN(C(=O)/C=C/CN(C)C)C3)c3ccc(Br)cc13)C2 [Example 149] | 3600 | 50700 | > 100000 | – | 680 | – | – | – | – |
| C=CC(=O)N1CC(NC(=O)Cn2cc(I)c3cc(Br)cc(CC)c32)C1 [Example 87] | 4810 | – | – | – | 910 | 14700 | > 100000 | – | – |
| C=CC(=O)N1CC(NC(=O)Cn2c(C)c(C(=O)N3CCc4c(ccnc4OC)C3)c3cc(Cl)ccc32)C1 [Example 28] | 590 | 2630 | > 100000 | – | 180 | – | – | – | – |
| C=CC(=O)N1CC(NC(=O)Cn2cc(CN3CCc4ccccc4C3)c3cc(Br)ccc32)C1 [Example 145] | 5700 | – | – | – | 1120 | 46900 | 50900 | – | – |
| C=CC(=O)N1CC(NC(=O)Cn2c(C)c(-c3ccccc3OC)c3cc(Cl)ccc32)C1 [Example 125] | 2750 | – | – | – | – | 33600 | > 100000 | – | – |
| C=CC(=O)N1CC(NC(=O)Cn2c3c(c4cc(Br)ccc42)CCCC3)C1 [Example 160] | 4950 | – | – | – | 1070 | 58300 | > 100000 | – | – |
| C=CC(=O)N1CC(N(C)C(=O)Cn2c(CC)c(C(=O)N3CCN(c4ccc(C#N)cn4)C[C@H]3C)c3cc(Cl)cc(C)c32)C1 [Example 4-6, 2-(5-Chloro-3-(((2R)-4-(5-cyano-2-pyridinyl)-2-methyl-1-piperazinyl)carbonyl)-2-ethyl-7-methyl-1H-indol-1-yl)-N-methyl-N-(1-(2-propenoyl)-3-azetidinyl)acetamide] | 130 | 730 | 86200 | – | – | – | – | – | – |
| C=CC(=O)N1CC(N(C)C(=O)Cn2c(C)c(C(=O)N3CCN(c4ccc([N+](=O)[O-])cn4)CC3)c3cc(Br)ccc32)C1 [Example 38] | 760 | 3330 | > 100000 | – | 220 | – | – | – | – |
| C=CC(=O)N1CC(N(C)C(=O)Cn2c(CC)c(C(=O)N3CCc4c(cccc4OC)C3)c3cc(Cl)cc(C)c32)C1 [Example 4-2, 2-(5-Chloro-2-ethyl-3-((5-methoxy-3,4-dihydro-2(1H)-isoquinolinyl)carbonyl)-7-methyl-1H-indol-1-yl)-N-methyl-N-(1-(2-propenoyl)-3-azetidinyl)acetamide] | 150 | 210 | > 100000 | – | – | – | – | – | – |
| C=CC(=O)N1CC(NC(=O)Cn2cc(I)c3cc(Br)c(C)cc32)C1 [Example 95] | 5790 | – | – | – | 1090 | 16700 | > 100000 | – | – |
| C=CC(=O)N1CC(NC(=O)Cn2c(C)c(-c3ccccc3N3CCCC3)c3cc(Cl)ccc32)C1 [Example 5-4, 2-(5-Chloro-2-methyl-3-(2-(1-pyrrolidinyl)phenyl)-1H-indol-1-yl)-N-(1-(2-propenoyl)-3-azetidinyl)acetamide] | 380 | – | – | – | – | 5490 | > 100000 | – | – |
| C=CC(=O)N1CC(NC(=O)Cn2c3ccccc3c3c(Br)cccc32)C1 [Example 117] | 2050 | – | – | – | 430 | 29600 | > 100000 | – | – |
| C=CC(=O)N1CC(NC(=O)Cn2c3c(c4cc([N+](=O)[O-])ccc42)CCCC3)C1 [Example 143] | 4530 | – | – | – | 850 | – | – | 44900 | > 100000 |
| C=CC(=O)N1CC(NC(=O)Cn2cc(-c3c(C)ccc4cn[nH]c34)c3cc(Br)ccc32)C1 [Example 130] | 4490 | – | – | – | 1020 | 37000 | 50100 | – | – |
| C=CC(=O)N1CC(NC(=O)Cn2c(C)c(C(=O)N3CCc4ccccc4[C@@H]3C)c3cc(Br)cc(C)c32)C1 [Example 2-2-2, 2-(5-Bromo-2,7-dimethyl-3-(((1S)-1-methyl-3,4-dihydro-2(1H)-isoquinolinyl)carbonyl)-1H-indol-1-yl)-N-(1-(2-propenoyl)-3-azetidinyl)acetamide] | 420 | 3010 | 61000 | – | – | – | – | – | – |
| C=CC(=O)N1CC(N(C)C(=O)Cn2cc(I)c3cc(I)ccc32)C1 [Example 66] | 2410 | – | – | 19500 | 100 | 8480 | > 33300 | – | – |
| C=CC(=O)N1CC(NC(=O)Cn2c(C)c(C(=O)N3CCc4c(cccc4OC)C3)c3cc(Cl)ccc32)C1 [Example 41] | 370 | 3550 | > 100000 | – | 120 | – | – | – | – |
